Reference: patent publication US10865203B2, “Ligands selective to alpha 6 subunit-containing GABAA receptors and their methods of use” (UWM Research Foundation, Inc., priority 2015, dated 2020)
Entries after “also recorded” stand apart in the source; their conditions may differ.

Experiments:
[1] = Microsomal stability assay, human liver microsomes; assay type: in vitro ADME; details: for % left after 1 hr. (HLM) / half-life at 10 μM / Half-life (min) (HLM): 10 μM test compound, 0.5 mg/mL protein, 37° C.; for stability in Human liver microsomes: Table 2; for half-life at 10 μM: human, liver microsomes, pH 7.4, read-out: Half-life (min) (HLM)
In short: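 Test compound at 10 μM was preincubated 5 min at 37 °C in phosphate buffer pH 7.4 with NADPH regenerating system, then started with human or mouse liver microsomes at 0.5 mg/mL protein. Samples were taken at 0–60 min and quenched in cold acetonitrile with internal standard. Slope k came from ln peak-area ratio versus time, three repeats in duplicate.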

α6β3γ2 receptor = molecular target: T1, α6β3γ2 receptor (Rattus norvegicus, UniProt P30191+P63079); assay: Electrophysiology in Xenopus oocytes, modulation of GABA currents; assay type: cell-based; details: for Emax: EC3-6 GABA currents, read-out: maximum efficacy, enhancement of the reference current; for selectivity for α6β3γ2 over other αxβ3γ2 receptors: modulation of GABA EC3 currents
T1 construct: expressed in transfected cells; host or cells: Xenopus laevis oocytes injected with subunit mRNA (3:1:5)
Experimental: Mature female Xenopus laevis (Nasco, Fort Atkinson, Wis., USA) were anaesthetized in a bath of ice-cold 0.17% Tricain (Ethyl-m-aminobenzoat, Sigma-Aldrich, St. Louis, Mo., USA) before decapitation and transfer of the frog's ovary to ND96 medium (96 mM NaCl, 2 mM KCl, 1 mM MgCl2, 5 mM HEPES; pH 7.5). Following incubation in 1 mg/mL collagenase (Sigma-Aldrich, St. Louis, Mo., USA) for 30 min, stage 5 to 6 oocytes were singled out of the ovary and defolliculated using a platinum wire loop. Oocytes were stored and incubated at 18° C. in NDE medium (96 mM NaCl, 2 mM KCl, 1 mM MgCl2, 5 mM HEPES, 1.8 mM CaCl2; pH 7.5) that was supplemented with 100 U per mL-1 penicillin, 100 μg per mL-1 streptomycin and 2.5 mM pyruvate. Oocytes were injected with an aqueous solution of mRNA. A total of 2.5 ng of mRNA per oocyte was injected. Subunit ratio was 1:1:5 for αxβγ2 (x=1, 2, 3, 5) and 3:1:5 for α4/6β3γ2 and αβδ receptors. Injected oocytes were incubated for at least 36 h before electrophysiological recordings. Oocytes were placed on a nylon-grid in a bath of NDE medium. For current measurements, the oocytes were impaled with two microelectrodes (2-3MΩ), which were filled with 2 M KCl. The oocytes were constantly washed by a flow of 6 mL per min-1 NDE that could be switched to NDE containing GABA and/or drugs. Drugs were diluted into NDE from DMSO solutions resulting in a final concentration of 0.1% DMSO. […] To test for modulation of GABA induced currents by compounds, a GABA concentration that was titrated to trigger 3-5% of the respective maximum GABA-elicited current of the individual oocyte (EC3-5) was applied to the cell together with various concentrations of tested compounds. All recordings were performed at room temperature at a holding potential of −60 mV using a Warner OC-725C TEV (Warner Instrument, Hamden, Conn., USA) or a Dagan CA-1B Oocyte Clamp or a Dagan TEV-200A TEV (Dagan Corporation, Mineapolis, Minn., USA). Data were digitized using a Digidata 1322A or 1550 data acquisition system (Axon Instruments, Union City, Calif., USA), recorded using Clampex 10.5 software (Molecular Devices, Sunnyvale, Calif., USA), and analyzed using Clampfit 10.5 and GraphPad Prism 6.0 (La Jolla, Calif., USA) software. Concentration-response data were fitted using the Hill equation. Data are given as mean±SEM from at least three oocytes of two batches.
For selected test compounds full dose response curves were recorded in α1-6β3γ2 receptors. For selected compounds, dose response curves in additional receptor subtypes (α1, 4, 6β3δ, α6β1, 2γ2, α1-6β3) were also obtained. For a wider panel of compounds, a two point screening pharmacology was obtained at 1 and 10 μM compound concentrations.

T1 sequence (P30191 20-453): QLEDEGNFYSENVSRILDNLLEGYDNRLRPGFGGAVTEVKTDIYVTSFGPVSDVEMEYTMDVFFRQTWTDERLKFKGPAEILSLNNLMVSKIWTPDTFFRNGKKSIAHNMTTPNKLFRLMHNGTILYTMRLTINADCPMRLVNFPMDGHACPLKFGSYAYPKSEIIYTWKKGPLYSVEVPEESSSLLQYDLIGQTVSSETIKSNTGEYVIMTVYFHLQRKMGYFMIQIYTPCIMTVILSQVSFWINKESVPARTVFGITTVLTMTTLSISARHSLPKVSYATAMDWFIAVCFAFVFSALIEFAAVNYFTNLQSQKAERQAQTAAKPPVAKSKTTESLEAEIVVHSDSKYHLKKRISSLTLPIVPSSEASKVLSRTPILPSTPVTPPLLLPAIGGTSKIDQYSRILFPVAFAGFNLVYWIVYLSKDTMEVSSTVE
T1 sequence (P63079 26-473): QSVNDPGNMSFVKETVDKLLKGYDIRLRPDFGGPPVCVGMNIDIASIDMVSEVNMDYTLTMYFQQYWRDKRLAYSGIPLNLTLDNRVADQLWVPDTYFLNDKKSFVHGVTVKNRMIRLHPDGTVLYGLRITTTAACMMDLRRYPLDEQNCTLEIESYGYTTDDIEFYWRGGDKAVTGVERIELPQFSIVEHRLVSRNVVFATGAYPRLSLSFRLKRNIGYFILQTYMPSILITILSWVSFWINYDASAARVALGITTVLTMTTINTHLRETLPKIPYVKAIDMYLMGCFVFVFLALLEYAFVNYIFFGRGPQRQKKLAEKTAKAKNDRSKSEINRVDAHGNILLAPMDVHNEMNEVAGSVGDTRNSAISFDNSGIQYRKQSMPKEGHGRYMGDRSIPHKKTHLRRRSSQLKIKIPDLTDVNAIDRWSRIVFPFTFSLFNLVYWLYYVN
T1 sequence (P18508 39-466 partner): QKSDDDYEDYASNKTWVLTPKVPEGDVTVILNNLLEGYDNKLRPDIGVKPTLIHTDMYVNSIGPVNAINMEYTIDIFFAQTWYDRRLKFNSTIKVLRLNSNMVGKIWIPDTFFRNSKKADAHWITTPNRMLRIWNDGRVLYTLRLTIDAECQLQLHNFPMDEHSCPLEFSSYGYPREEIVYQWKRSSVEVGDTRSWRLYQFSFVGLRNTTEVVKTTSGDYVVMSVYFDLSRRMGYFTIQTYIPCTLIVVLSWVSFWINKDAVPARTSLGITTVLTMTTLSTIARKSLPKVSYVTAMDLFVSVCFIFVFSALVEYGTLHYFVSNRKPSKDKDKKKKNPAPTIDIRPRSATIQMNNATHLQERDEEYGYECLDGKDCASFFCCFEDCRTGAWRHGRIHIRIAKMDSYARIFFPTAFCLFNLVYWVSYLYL

Compound	% left after 1 hr. (HLM) [1] [%]	stability in Human liver microsomes [1] [%]	half-life at 10 μM [1] [min]	Emax (α6β3γ2 receptor) [%]	selectivity for α6β3γ2 over other αxβ3γ2 receptors (α6β3γ2 receptor)	selectivity for α6β3γ2 over other αxβ3γ2 receptors (α6β3γ2 receptor; listed as compound 6)	Half-life (min) (HLM) [1]	maximum efficacy compared to the lead compounds (α6β3γ2 receptor)
COc1cccc(-n2nc3c4cc(Cl)ccc4[nH]cc-3c2=O)c1 [LAU 159, 8-Chloro-2-(3-methoxyphenyl)-2,5-dihydro-3H-pyrazolo[4,3-c]quinolin-3-one]	81.44 ± 0.16	~80	207 ± 15	~400	preferentially modulate GABA currents of α6β3γ2 receptors; also recorded: pronounced selectivity for the α6β3γ2 receptor; also recorded: (efficacy-) selective for α6β3γ2 receptors			
COc1ccc(-n2nc3c4ccc(Br)cc4[nH]cc-3c2=O)cc1 [LAU 463, 7-Bromo-2-(4-methoxyphenyl)-2,5-dihydro-3H-pyrazolo[4,3-c]quinolin-3-one]	66.86 ± 0.13		104 ± 4	400 to 1000	preferentially modulate GABA currents of α6β3γ2 receptors; also recorded: pronounced selectivity for the α6β3γ2 receptor; also recorded: (efficacy-) selective for α6β3γ2 receptors			
COc1ccc(-n2nc3c4ccc(OC)cc4[nH]cc-3c2=O)cc1 [Compound 6, 7-Methoxy-2-(4-methoxyphenyl)-2,5-dihydro-3H-pyrazolo[4,3-c]quinolin-3-one]	86.1 ± 1.0	86	212 ± 25	400 to 1000	preferentially modulate GABA currents of α6β3γ2 receptors; also recorded: pronounced selectivity for the α6β3γ2 receptor	selectively modulates α6-containing receptors; also recorded: (efficacy-) selective for α6β3γ2 receptors		
[2H]C([2H])([2H])Oc1ccc(-n2nc3c4ccc(OC)cc4[nH]cc-3c2=O)cc1 [DK-I-56-1, 7-Methoxy-2-(4-methoxy-d3-phenyl)-2,5-dihydro-3H-pyrazolo[4,3-c]quinolin-3-one]	91.69 ± 0.09						520 ± 51	
[2H]C([2H])([2H])Oc1ccc2c3nn(-c4ccc(OC)nc4)c(=O)c-3c[nH]c2c1 [DK-I-86-1, 7-Methoxy-d3-2-(6-methoxypyridin-3-yl)-2,5-dihydro-3H-pyrazolo[4,3-c]quinolin-3-one]	92.3 ± 0.13				preferentially modulates α6β3γ2 receptors; also recorded: selectivity was very good		752.30 ± 261	lower
